122 compounds from a melting point compilation (Tetko et al.) can be followed below.

A value given as a limit tells only on which side of the number the result lay.

`COc1cccc(-c2noc(Cl)n2)c1`: the melting point (commonly the temperature, or range, at which the solid turns liquid) lay in the range of 56 to 58 °C. Under `CC(N)c1ccc2c(c1)NC(=O)CO2` (configuration not stated) stands 130 to 132 °C. Under `Clc1ccc(Cc2nn[nH]n2)cc1Cl` stands 153 to 155 °C. The figure for `COc1ccc2cc(CO)ccc2c1` is 122 to 124 °C; for `COc1ccc(CNC(N)=S)cc1OC` it is 191 to 193 °C. `COC(=O)c1cc(S(N)(=O)=O)cnc1Cl` had a melting point of 60 to 62 °C. The figure for `CC(=O)c1ccc(S(=O)(=O)Nc2ccc(C(=O)O)cc2)cc1` is 152 to 154 °C; for `COc1ccc2c(c1)NC(=O)C2=O` it is 223 to 225 °C. On to `COC(=O)C(=O)CC(=O)c1ccc(C)cc1`, for which the melting point was in the range of 86 to 88 °C.

Compound `Cc1cccc2nc(CSc3ccccc3C(=O)O)cc(=O)n12` came in with a melting point of 211 to 213 °C. The compound `Fc1ccc(CBr)c2ncccc12` displayed a melting point of 94 to 96 °C.

Regarding `Nc1ccnn1Cc1c(Cl)cccc1Cl`, the melting point was 127 to 129 °C. Under `CC(C)Oc1ccc(CCCO)cc1` stands 31 to 33 °C.

`O=C(CCl)Nc1ccc(S(=O)(=O)N2CCOCC2)cc1` returned a melting point of 145 to 147 °C. Take `CC(=O)NC(C)c1ccc(-c2csc(N)n2)cc1` (configuration not stated): the melting point lay within 225 to 227 °C. `COc1cccc(NCC(=O)NN)c1` displayed a melting point of 108 to 112 °C. Under `COc1ccc(C(=O)Nc2sc3c(c2C(=O)O)CCCC3)cc1` stands 216 to 220 °C; under `CCOc1ccc2ccccc2c1CO`, 49 to 51 °C. The figure for `NC(=S)COCc1ccccc1` is 43 to 45 °C. The figure for `Oc1ccc(Oc2ccc(C(F)(F)F)cn2)cc1` is 90 to 92 °C; for `Cc1nc(NCCc2ccccc2)sc1C(=O)O` it is 170 to 172 °C. Compound `CNC(=O)c1ccc(CN)cc1` gave a melting point of 90 to 92 °C.

`O=c1[nH]c(S)nc2ccsc12` registered a melting point of 364 to 366 °C. Under `CCOc1cccc(CC(=O)O)c1` stands 89 to 91 °C; under `Nc1ccccc1NC(=O)c1ccccc1`, 149 to 151 °C. Under `CC(N)c1ccc2c(c1)CC(=O)N2C` (configuration not stated) stands 101 to 103 °C. Under `N#CCc1cccc(C#N)c1` stands 78 to 80 °C; under `Cc1noc2nc(-c3cccs3)cc(C(=O)O)c12`, 138 to 140 °C; under `Cc1cccc(S(N)(=O)=O)c1Cl`, 169 to 171 °C. For `O=C(CCl)NCc1cccc(F)c1`, the melting point was 53 to 55 °C. In turn, `CCCc1noc2nc(C3CC3)cc(C(=O)O)c12` returned a melting point of 142 to 144 °C. The compound `Nc1ccc(Oc2ccncc2)c(Cl)c1` had a melting point of 129 to 131 °C.

As to `N=C(N)NCCC(=O)O`, the melting point lay in the range of 220 to 224 °C. The figure for `Nc1ncn(-c2ccncc2)n1` is 213 to 215 °C.

`O=C(O)C1CCN(C(=O)c2ccccn2)CC1`: the melting point was 146 to 148 °C.

Consider `O=C(O)Cc1csc(-c2cccc(Cl)c2)n1`, for which the melting point lay in the range of 104 to 109 °C. The compound `COc1cc(NC(=O)C2CC2C)c(C(=O)O)cc1OC` (configuration not stated) returned a melting point of 207 to 209 °C. For the compound `Cc1ccc(C(F)(F)C(=O)O)cc1`, the melting point lay within 39 to 41 °C. Under `Cc1ccc(S(=O)(=O)N2CCCCC2)cc1NC(=O)CCl` stands 107 to 109 °C; under `Nc1ccc2c(c1)NC(=O)CC2`, 210 to 212 °C; under `CC(C)CCNC(=O)CC(=O)NCCC(C)C`, 69 to 71 °C. The figure for `C=CCNS(=O)(=O)c1ccc(C(=O)O)cc1` is 215 to 217 °C; for `Cc1cc(C)nc(SCC(=O)NN)n1` it is 119 to 121 °C. The figure for `COCCCOc1ccc(C(=O)O)cc1` is 112 to 114 °C; for `Clc1ccc(-c2n[nH]cc2Br)cc1` it is 140 to 142 °C. `CC(C(O)c1ccccc1)N(C)S(=O)(=O)c1ccc([N+](=O)[O-])cc1` (configuration not stated) returned a melting point of 132 to 134 °C. The figure for `Cn1nc(Br)c2c(N)ncnc21` is 228 to 230 °C; for `CCc1ccc(S(=O)(=O)O)cc1N` it is 268 to 270 °C; for `O=C(O)CNC(=O)c1ccc2[nH]nnc2c1` it is 215 to 217 °C.

Consider `Brc1nn2cc(-c3cccnc3)nc2s1`, for which the melting point lay within 230 to 232 °C.

`NCc1nc(-c2cccs2)no1`: the melting point fell in the range of 141 to 143 °C.

In the case of `Nc1nnc(-c2ccc([N+](=O)[O-])o2)o1`, the melting point is 259 to 261 °C. `Nc1ccc(-n2cnnn2)cc1`: the melting point is 140 to 142 °C. Under `O=C(/C=C/c1ccccc1)c1ccc(Br)cc1` stands 104 to 106 °C; under `CN(C)C(=O)c1cc(N)ccc1Cl`, 158 to 160 °C. The figure for `CCn1c(C2CCN(C(=O)OC(C)(C)C)CC2)n[nH]c1=O` is 219 to 221 °C; for `CC(C)c1nnc(CC#N)[nH]1` it is 148 to 150 °C. Under `O=C(O)c1ccc(-c2cccs2)[nH]c1=O` stands 289 to 291 °C; under `O=C1CCCC(N2C(=O)c3ccccc3C2=O)C1` (configuration not stated), 147 to 149 °C; under `ClC(Cl)c1nnc(-c2ccccc2)o1`, 82 to 84 °C. `O=C(O)c1cnn(-c2cccc(Cl)c2)c1` showed a melting point of 204 to 206 °C.

For `O=C(c1cc(Br)c(S(=O)(=O)Cl)[nH]1)C(Cl)(Cl)Cl`, the melting point was 144 to 146 °C.

Turning to `N#Cc1ccc(Br)cc1C(F)(F)F`, the melting point lay in the range of 35 to 37 °C. The figure for `NNC(=O)Cc1cccc(F)c1` is 106 to 108 °C; for `NS(=O)(=O)c1ccc(CCCl)cc1` it is 178 to 180 °C; for `Cc1cc(-n2c(C)cc(C=O)c2C)no1` it is 75 to 77 °C. The figure for `O=C(O)c1cnc2ccc(Br)cc2c1O` is 274 to 276 °C. As to `CC(C)(C)OC(=O)NC(CN)CN`, the melting point was 58 to 60 °C. Under `Cc1ccc(CN(C)C)cc1N` stands 66 to 68 °C; under `O=C(O)CC1OCCc2ccsc21` (configuration not stated), 109 to 111 °C; under `Cc1cc(F)c([N+](=O)[O-])cc1S(=O)(=O)Cl`, 66 to 68 °C. The figure for `NNc1ccc(S(=O)(=O)Nc2ccccn2)cn1` is 218 to 220 °C; for `C1CCC(c2nnn[nH]2)C1` it is 119 to 121 °C; for `NCCC(=O)Nc1ccccc1` it is 62 to 64 °C.

The compound `COc1ccc(NC(=S)NN)cn1` registered a melting point of 154 to 156 °C.

Regarding `Cc1cc(Br)cc2c1NC(=O)C2`, the melting point fell in the range of 224 to 226 °C. Compound `CC(=O)NCc1cccc(Br)c1` came in with a melting point of 75 to 77 °C. Under `CCOC(=O)c1ncn(-c2ccc(C)cc2)c1N` stands 246 to 248 °C.

Regarding `COc1ccc(CCCCCC(=O)O)cc1`, the melting point lay in the range of 46 to 48 °C.

`O=C(O)C1CCN(C=CC(=O)C(F)(F)F)CC1` displayed a melting point of 135 to 137 °C. The compound `CC(=O)NCc1ccc(Br)cc1` showed a melting point of 114 to 116 °C. The figure for `COc1ccc(-c2ccc(C(=O)O)c(F)c2)c(F)c1` is 212 to 214 °C. In turn, `CC(=O)N(CCc1ccccc1)CC(=O)O` came in with a melting point of 149 to 151 °C. The figure for `Cc1sc(N)nc1-c1ccc(Br)cc1` is 147 to 149 °C; for `O=C1C=CC(=O)N1c1cccc(C(F)(F)F)c1` it is 67 to 69 °C; for `N#Cc1cnc2ccc(Cl)cc2c1Cl` it is 129 to 131 °C. The compound `O=C(NC1CC1)c1cc(Br)c[nH]1` came in with a melting point of 144 to 146 °C. The figure for `Cc1cccc(C(N)=O)c1N` is 145 to 147 °C. Under `O=C1CC2(CCCCC2)CC(=O)N1` stands 169 to 171 °C. Under `CC(=O)Nc1ccc(Oc2nc3ccccc3o2)cc1` stands 164 to 166 °C. `FC(F)(F)c1ccc2nnc(S)n2c1`: the melting point lay in the range of 120 to 122 °C.

`CCn1c(S)nnc1C1CC1` displayed a melting point of less than 17 °C. The figure for `Nc1nnc(-c2ccoc2)[nH]1` is 188 to 190 °C; for `O=C(O)/C=C/c1nc2ccccc2o1` it is 223 to 225 °C; for `O=C(Nc1cccc(-c2nnnn2C2CC2)c1)OCC(F)(F)F` it is 124 to 126 °C. The figure for `CC(C)(C)Cc1nc(-c2ccc(C(=O)O)cc2)no1` is 227 to 229 °C; for `CC(C)NC(=O)Nc1ccccc1C(=O)O` it is 178 to 180 °C. The figure for `Cc1cccc2nc(CCl)cc(=O)n12` is 120 to 122 °C; for `O=C(O)c1cc(I)cc(C(F)(F)F)c1` it is 182 to 184 °C; for `COc1cccc(NC(=S)NN)c1` it is 168 to 170 °C.

On to `O=c1[nH]cnc2c1cnn2-c1ccc(F)cc1`, for which the melting point is 243 to 246 °C.

Compound `CN1C(=O)CCC(C(=O)O)C1c1cnn(C)c1` (configuration not stated) registered a melting point of 225 to 227 °C. Under `O=C1NCCCCC1Oc1ccc(Br)cc1` (configuration not stated) stands 176 to 178 °C; under `Nc1ccccc1CS(=O)(=O)c1ccccc1`, 172 to 174 °C.

The compound `O=c1ccc2ccc(Cl)c(Cl)c2[nH]1` registered a melting point of 241 to 243 °C. Under `CC(C)(C)NS(=O)(=O)c1cccc(N)c1` stands 137 to 139 °C; under `Sc1nnnn1C1CCCC1`, 123 to 125 °C; under `O=C(CCl)NC(=O)NC1CCCCC1`, 102 to 105 °C. Compound `CSc1cc(C(=O)O)ccn1` gave a melting point of 218 to 220 °C. The figure for `Cc1nc(SCC(=O)O)c(C#N)c(C)c1C` is 135 to 138 °C; for `NC(=O)CNCC(N)=O` it is 129 to 131 °C. `CCc1ccc(N2CC(C(=O)O)CC2=O)cc1` (configuration not stated) returned a melting point of 144 to 148 °C. Under `O=c1[nH]c(CCl)nc2cc(-c3ccc(Cl)cc3)sc12` stands 217 to 219 °C; under `CC(=O)N1CCCc2cc(S(=O)(=O)Cl)ccc21`, 127 to 129 °C. The figure for `CC(C)(C)C(Br)C(N)=O` (configuration not stated) is 91 to 93 °C. Compound `N#Cc1cnn(-c2nccs2)c1N` came in with a melting point of 165 to 167 °C.

`CC(C)C(=O)Nc1ccc(Cl)c(C(=O)O)c1` showed a melting point of 229 to 231 °C.

The compound `CC(C)(CN)C(N)=O` displayed a melting point of 72 to 74 °C. Under `O=C(O)c1cc(-c2cccc(Cl)c2)nc2nc(N3CCCCC3)sc12` stands 199 to 203 °C; under `CCc1cccc2c(CC#N)c[nH]c12`, 115 to 117 °C; under `N#Cc1c(N)sc2c1CCCCC2`, 103 to 115 °C. The figure for `O=C(Nc1cccc2cccnc12)OCC(F)(F)F` is 75 to 77 °C.
